Assay results from patent US10961228B2, “JAK1 selective inhibitors” (AstraZeneca AB, priority 2017, dated 2021).

Experiments:
[1] = target: recombinant JAK2 (amino acids 831-1132) (Homo sapiens (Human), UniProt O60674); assay: Enzyme inhibition studies, JAK2 (5 mM ATP, Caliper); format: biochemical
Procedure: (§1) JAK enzyme was expressed as N-terminal GST fusion in insect cells and purified by glutathione-affinity and size-exclusion chromatographies. Enzymes were assayed at their approximated high end of physiological ATP concentration of 5 mM, in the presence of inhibitor dosed at 30, 3, 0.3, 0.03, 0.003 and 0 μM final test concentrations.
(§2) Phosphorylated and unphosphotylated peptides were separated and quantified by a Caliper LC3000 system (Caliper Life Sciences, MA) for calculating percent inhibition.

[2] = target: recombinant JAK3 (amino acids 781-1124) (Homo sapiens (Human), UniProt P52333); assay: Enzyme inhibition studies, JAK3 (5 mM ATP, Caliper); format: biochemical
Sequence of recombinant JAK3 (amino acids 781-1124) (P52333 781-1124): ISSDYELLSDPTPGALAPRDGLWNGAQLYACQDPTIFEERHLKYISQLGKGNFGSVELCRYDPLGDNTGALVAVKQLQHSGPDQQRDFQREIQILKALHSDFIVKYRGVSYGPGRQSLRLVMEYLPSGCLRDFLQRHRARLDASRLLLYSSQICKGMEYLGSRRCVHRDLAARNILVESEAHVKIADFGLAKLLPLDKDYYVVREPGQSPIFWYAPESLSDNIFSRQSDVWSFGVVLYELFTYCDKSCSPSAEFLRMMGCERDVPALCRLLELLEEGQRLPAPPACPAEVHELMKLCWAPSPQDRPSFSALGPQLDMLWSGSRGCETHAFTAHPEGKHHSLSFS
Procedure: as §1, §2

[3] = test system: IL-13 induced STAT6 promotor luciferase reporter in U937 monocytes (U937-STAT6-Luc); assay: Cellular interleukin (IL-13) induced JAK-STAT6-luciferase assay (pSTAT6); format: cell-based; details: Homo sapiens, U-937; IL-13 induced STAT6-luciferase, U937-STAT6-Luc cells
Procedure: Cells were harvested by centrifugation at 250 g for 5 min and resuspended in Assay buffer (20 mM HEPES, 1×HBSS and 0.1% BSA) to 1000 cells pr μl. For stimulation of cells was used interleukin (IL-13) also dissolved in Assay buffer to […]. […] Test and control compounds were applied to assay plates (low vol white 384-well plates) in serial dilutions from 10 mM to 0.5 nM at 5 nl pr well in DMSO.
To each well was added 4 μl cells and 4 μl interleukin (IL-13) and the plates were sealed and incubated at 37° C. for 4½ h and then at room temperature for 30 min. The assay was developed by addition of 4 μl pr well of SteadyGlo (Promega) and after […] the plates were read at an Envision plate reader with luminescence filter.

[4] = target: recombinant JAK1 (amino acids 866-1154) (Homo sapiens (Human), UniProt P23458); assay: Enzyme inhibition studies, JAK1 (5 mM ATP, Caliper); format: biochemical
Sequence of recombinant JAK1 (amino acids 866-1154) (P23458 866-1154): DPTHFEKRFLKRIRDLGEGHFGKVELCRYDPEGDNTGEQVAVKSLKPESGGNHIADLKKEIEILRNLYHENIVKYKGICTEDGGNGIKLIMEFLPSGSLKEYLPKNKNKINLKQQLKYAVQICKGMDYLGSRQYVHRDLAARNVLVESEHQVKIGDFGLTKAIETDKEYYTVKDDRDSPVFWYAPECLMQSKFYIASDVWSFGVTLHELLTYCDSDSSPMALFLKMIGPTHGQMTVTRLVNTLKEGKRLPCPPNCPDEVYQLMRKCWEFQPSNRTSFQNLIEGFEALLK
Procedure: as §1, §2

Sequence of recombinant JAK2 (amino acids 831-1132) (O60674 831-1132): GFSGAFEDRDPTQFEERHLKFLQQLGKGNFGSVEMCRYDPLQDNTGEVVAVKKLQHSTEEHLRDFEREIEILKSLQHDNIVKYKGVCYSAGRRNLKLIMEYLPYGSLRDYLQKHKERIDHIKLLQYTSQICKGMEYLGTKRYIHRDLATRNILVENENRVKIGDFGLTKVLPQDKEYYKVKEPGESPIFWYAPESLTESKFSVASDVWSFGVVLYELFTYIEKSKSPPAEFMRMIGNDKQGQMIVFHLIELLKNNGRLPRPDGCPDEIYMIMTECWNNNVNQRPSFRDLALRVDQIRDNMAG

SMILES | IC50 [1] [nM] | IC50 [2] [nM] | IC50 [3] [nM] | IC50 [4] [nM]
Cc1cnc(Nc2cccc(S(C)(=O)=O)c2F)nc1-c1c[nH]c2c(NC(=O)[C@H](C)N3CCN(C)C[C@H]3C)cccc12 [Example 47, (S)-2-((R)-2,4-dimethylpiperazin-1-yl)-N-(3-(2-((2-fluoro-3-(methylsulfonyl)phenyl)amino)-5-methylpyrimidin-4-yl)-1H-indol-7-yl)propanamide] | > 30000 | > 30000 | 619 | 180
CC[C@@H](C(=O)Nc1cccc2c(-c3nc(Nc4cccc(S(C)(=O)=O)c4F)ncc3C)c[nH]c12)N1CCCN(C)CC1 [Example 36, (S)-N-(3-(2-((2-fluoro-3-(methylsulfonyl)phenyl)amino)-5-methylpyrimidin-4-yl)-1H-indol-7-yl)-2-(4-methyl-1,4-diazepan-1-yl)butanamide] | > 30000 | > 30000 | 167 | 70.3
CC[C@@H](C(=O)Nc1cccc2c(-c3nc(Nc4cccc(S(C)(=O)=O)c4F)ncc3C)c[nH]c12)N1CCN(C)CC1 [Example 13, (S)-N-(3-(2-((2-fluoro-3-(methylsulfonyl)phenyl)amino)-5-methylpyrimidin-4-yl)-1H-indol-7-yl)-2-(4-methylpiperazin-1-yl)butanamide] | 26100 | > 30000 | 97 | 22.4
Cc1cnc(Nc2cccc(S(C)(=O)=O)c2F)nc1-c1c[nH]c2c(NC(=O)[C@H](C)N3CCN(C)CC3)cccc12 [Example 6, (S)-N-(3-(2-((2-fluoro-3-(methylsulfonyl)phenyl)amino)-5-methylpyrimidin-4-yl)-1H-indol-7-yl)-2-(4-methylpiperazin-1-yl)propanamide] | > 30000 | > 30000 | 172 | 57.4
Cc1cnc(Nc2cccc(S(C)(=O)=O)c2F)nc1-c1c[nH]c2c(NC(=O)[C@@H](C)N3CCN(C)C[C@H]3C)cccc12 [Example 48, (R)-2-((R)-2,4-dimethylpiperazin-1-yl)-N-(3-(2-((2-fluoro-3-(methylsulfonyl)phenyl)amino)-5-methylpyrimidin-4-yl)-1H-indol-7-yl)propanamide] | 8230 | > 30000 | 82 | 3
Cc1cnc(Nc2cccc(S(C)(=O)=O)c2F)nc1-c1c[nH]c2c(NC(=O)[C@H](C)N3CCN(C)C[C@@H]3C)cccc12 [Example 59, (S)-2-((S)-2,4-dimethylpiperazin-1-yl)-N-(3-(2-((2-fluoro-3-(methylsulfonyl)phenyl)amino)-5-methylpyrimidin-4-yl)-1H-indol-7-yl)propanamide] | > 30000 | > 30000 | > 6250 | 145
CC[C@H](C(=O)Nc1cccc2c(-c3nc(Nc4cccc(S(C)(=O)=O)c4F)ncc3C)c[nH]c12)N1CCN(C)CC1 [Example 14, (R)-N-(3-(2-((2-fluoro-3-(methylsulfonyl)phenyl)amino)-5-methylpyrimidin-4-yl)-1H-indol-7-yl)-2-(4-methylpiperazin-1-yl)butanamide] | 2430 | > 30000 | 21 | < 3
C[C@H](C(=O)Nc1cccc2c(-c3nc(Nc4cccc(S(C)(=O)=O)c4F)ncc3F)c[nH]c12)N1CCCN(C)CC1 [Example 46, (R)-N-(3-(5-fluoro-2-((2-fluoro-3-(methylsulfonyl)phenyl)amino)pyrimidin-4-yl)-1H-indol-7-yl)-2-(4-methyl-1,4-diazepan-1-yl)propanamide] | 17800 | > 30000 | 83 | 19.8
Cc1cnc(Nc2cccc(S(C)(=O)=O)c2F)nc1-c1c[nH]c2c(NC(=O)[C@H](C)N3CCNCC3)cccc12 [Example 25, (S)-N-(3-(2-((2-fluoro-3-(methylsulfonyl)phenyl)amino)-5-methylpyrimidin-4-yl)-1H-indol-7-yl)-2-(piperazin-1-yl)propanamide] | 6590 | > 30000 | 63 | 22.8

Now from value to molecule:

IC50 [1] [nM] | IC50 [2] [nM] | IC50 [3] [nM] | IC50 [4] [nM] | SMILES
1790 | > 30000 | 74 | 6.4 | CC[C@H](C(=O)Nc1cccc2c(-c3nc(Nc4cccc(S(C)(=O)=O)c4F)ncc3F)c[nH]c12)N1C[C@@H](C)N[C@H](C)C1 [Example 31, (R)-2-((3R,5R)-3,5-dimethylpiperazin-1-yl)-N-(3-(5-fluoro-2-((2-fluoro-3-(methylsulfonyl)phenyl)amino)pyrimidin-4-yl)-1H-indol-7-yl)butanamide]
> 30000 | > 30000 | 163 | 42.8 | CC[C@@H](C(=O)Nc1cccc2c(-c3nc(Nc4cccc(S(C)(=O)=O)c4F)ncc3C)c[nH]c12)N1CCN(C)CC1C (stereo in doubt) [Example 61, (S)-2-((S)-2,4-dimethylpiperazin-1-yl)-N-(3-(2-((2-fluoro-3-(methylsulfonyl)phenyl)amino)-5-methylpyrimidin-4-yl)-1H-indol-7-yl)butanamide]
> 30000 | > 30000 | 78 | 24.5 | C[C@H](C(=O)Nc1cccc2c(-c3nc(Nc4cccc(S(C)(=O)=O)c4F)ncc3F)c[nH]c12)N1C[C@H](C)N(C)[C@@H](C)C1 [Example 8, (R)-N-(3-(5-fluoro-2-((2-fluoro-3-(methylsulfonyl)phenyl)amino)pyrimidin-4-yl)-1H-indol-7-yl)-2-((3S,5S)-3,4,5-trimethylpiperazin-1-yl)propanamide]
456 | > 30000 | 38 | < 3 | CC[C@H](C(=O)Nc1cccc2c(-c3nc(Nc4cccc(S(C)(=O)=O)c4F)ncc3C)c[nH]c12)N1C[C@@H](C)N[C@H](C)C1 [Example 26, (R)-2-((3R,5R)-3,5-dimethylpiperazin-1-yl)-N-(3-(2-((2-fluoro-3-(methylsulfonyl)phenyl)amino)-5-methylpyrimidin-4-yl)-1H-indol-7-yl)butanamide]
> 30000 | > 30000 | 1280 | 403 | CC[C@@H](C(=O)Nc1cccc2c(-c3nc(Nc4cccc(S(C)(=O)=O)c4F)ncc3F)c[nH]c12)N1CCCN(C)CC1 [Example 18]
> 30000 | > 30000 | 745 | 123 | COC[C@@H](C(=O)Nc1cccc2c(-c3nc(Nc4cccc(S(C)(=O)=O)c4F)ncc3F)c[nH]c12)N1CCN(C)C[C@H]1C [Example 56]
> 30000 | > 30000 | 477 | 95 | COC[C@@H](C(=O)Nc1cccc2c(-c3nc(Nc4cccc(S(C)(=O)=O)c4F)ncc3C)c[nH]c12)N1CCCN(C)CC1 [Example 43, (S)-N-(3-(2-((2-fluoro-3-(methylsulfonyl)phenyl)amino)-5-methylpyrimidin-4-yl)-1H-indol-7-yl)-3-methoxy-2-(4-methyl-1,4-diazepan-1-yl)propanamide]
4820 | > 30000 | 58 | 3.95 | COC[C@H](C(=O)Nc1cccc2c(-c3nc(Nc4cccc(S(C)(=O)=O)c4F)ncc3F)c[nH]c12)N1C[C@H](C)N(C)[C@@H](C)C1 [Example 41, (R)-N-(3-(5-fluoro-2-((2-fluoro-3-(methylsulfonyl)phenyl)amino)pyrimidin-4-yl)-1H-indol-7-yl)-3-methoxy-2-((3S,5S)-3,4,5-trimethylpiperazin-1-yl)propanamide]
1160 | > 30000 | 72 | 14.2 | CC[C@@H](C(=O)Nc1cccc2c(-c3nc(Nc4cccc(S(C)(=O)=O)c4F)ncc3F)c[nH]c12)N1C[C@@H](C)N[C@H](C)C1 [Example 30, (S)-2-((3R,5R)-3,5-dimethylpiperazin-1-yl)-N-(3-(5-fluoro-2-((2-fluoro-3-(methylsulfonyl)phenyl)amino)pyrimidin-4-yl)-1H-indol-7-yl)butanamide]
2560 | > 30000 | 29 | < 3 | COC[C@H](C(=O)Nc1cccc2c(-c3nc(Nc4cccc(S(C)(=O)=O)c4F)ncc3C)c[nH]c12)N1C[C@H](C)N(C)[C@@H](C)C1 [Example 22, (R)-N-(3-(2-((2-fluoro-3-(methylsulfonyl)phenyl)amino)-5-methylpyrimidin-4-yl)-1H-indol-7-yl)-3-methoxy-2-((3S,5S)-3,4,5-trimethylpiperazin-1-yl)propanamide]
6870 | > 30000 | 42.6 | 3.3 | CC[C@H](C(=O)Nc1cccc2c(-c3nc(Nc4cccc(S(C)(=O)=O)c4F)ncc3F)c[nH]c12)N1CCN(C)CC1 [Example 38]
11100 | > 30000 | 85 | 13.1 | C[C@H](C(=O)Nc1cccc2c(-c3nc(Nc4cccc(S(C)(=O)=O)c4F)ncc3F)c[nH]c12)N1C[C@H](C)N[C@@H](C)C1 [Example 11, (R)-2-((3S,5S)-3,5-dimethylpiperazin-1-yl)-N-(3-(5-fluoro-2-((2-fluoro-3-(methylsulfonyl)phenyl)amino)pyrimidin-4-yl)-1H-indol-7-yl)propanamide]
